Source: ChEMBL document CHEMBL4814027, “Synthesis and biological evaluation of naphthoquinone phenacylimidazolium derivatives” (Bioorg Med Chem Lett, 2021)

How the values were obtained:
[1] = Selectivity ratio of IC50 for mouse L929 cells to IC50 for human HeLa cells; format: toxicity; conditions: L929 cells versus HeLa cells, read-out: Ratio IC50
L929 = experiment: Cytotoxicity against mouse L929 cells by MTT assay
A549 = experiment: Cytotoxicity against human A549 cells by MTT assay
[2] = Selectivity ratio of IC50 for mouse L929 cells to IC50 for human A549 cells; format: toxicity; conditions: L929 cells versus A549 cells, read-out: Ratio IC50
MCF7 = experiment: Cytotoxicity against human MCF7 cells by MTT assay; format: functional, cell-based
[3] = Selectivity ratio of IC50 for mouse L929 cells to IC50 for human MCF7 cells; format: toxicity; conditions: L929 cells versus MCF7 cells, read-out: Ratio IC50
HeLa = experiment: Cytotoxicity against human HeLa cells by MTT assay; format: functional, cell-based

Structure (SMILES)	selectivity ratio [1]	IC50 (L929)	IC50 (A549)	selectivity ratio [2]	IC50 (MCF7)	selectivity ratio [3]	IC50 (HeLa)
Cn1c[n+](CC(=O)c2cccc([N+](=O)[O-])c2)c2c1C(=O)c1ccccc1C2=O	4.86	36.9 µM	2200 nM	16.8	12.9 µM	2.86	7.6 µM
Cc1cc(C)c(-n2c[n+](CC(=O)c3ccc([N+](=O)[O-])cc3)c3c2C(=O)c2ccccc2C3=O)c(C)c1	0.59	24.5 µM	6600 nM	3.71	12.3 µM	1.99	41.7 µM
CC(C)Cn1c[n+](CC(=O)c2ccc(Cl)cc2)c2c1C(=O)c1ccccc1C2=O	2.47	9.4 µM	3300 nM	2.85	0.66 µM	14.2	3.8 µM
Cn1c[n+](CC(=O)c2ccc(Br)cc2)c2c1C(=O)c1ccccc1C2=O	2.49	20.7 µM	950 nM	21.8	7.3 µM	2.84	8.3 µM
CC(C)Cn1c[n+](CC(=O)c2ccc(C(F)(F)F)cc2)c2c1C(=O)c1ccccc1C2=O	2.86	26.3 µM	7800 nM	3.37	7.6 µM	3.46	9.2 µM
Cn1c[n+](CC(=O)c2ccc([N+](=O)[O-])cc2)c2c1C(=O)c1ccccc1C2=O	5.26	53.1 µM	3600 nM	14.8	12.1 µM	4.39	10.1 µM
Cn1c[n+](CC(=O)C(C)(C)C)c2c1C(=O)c1ccccc1C2=O	4.72	27.4 µM	2400 nM	11.4	7.6 µM	3.61	5.8 µM
Cn1c[n+](CC(=O)c2ccc(Cl)cc2)c2c1C(=O)c1ccccc1C2=O	2.15	14.2 µM	1000 nM	14.2	4.9 µM	2.9	6.6 µM
CCn1c[n+](CC(=O)c2ccc([N+](=O)[O-])cc2)c2c1C(=O)c1ccccc1C2=O	3.15	27.7 µM	2100 nM	13.2	16.7 µM	1.66	8.8 µM
CC(C)Cn1c[n+](CC(=O)c2ccc([N+](=O)[O-])cc2)c2c1C(=O)c1ccccc1C2=O	1.7	4.6 µM	1000 nM	4.6	2.3 µM	2	2.7 µM
CCCCn1c[n+](CC(=O)c2ccc([N+](=O)[O-])cc2)c2c1C(=O)c1ccccc1C2=O	4.55	20 µM	2500 nM	8	6.2 µM	3.23	4.4 µM
Cc1ccc(C(=O)C[n+]2cn(C)c3c2C(=O)c2ccccc2C3=O)cc1	4.2	14.7 µM	160 nM	91.9	0.6 µM	24.5	3.5 µM
COc1ccc(C(=O)C[n+]2cn(CC(C)C)c3c2C(=O)c2ccccc2C3=O)cc1	28.8	2.3 µM	190 nM	12.1	0.31 µM	7.42	0.08 µM
CC(C)Cn1c[n+](CC(=O)c2ccc(Br)cc2)c2c1C(=O)c1ccccc1C2=O	5.74	15.5 µM	2400 nM	6.46	0.69 µM	22.5	2.7 µM
COCCn1c[n+](CC(=O)c2ccc([N+](=O)[O-])cc2)c2c1C(=O)c1ccccc1C2=O	5.29	41.3 µM	2900 nM	14.2	18.9 µM	2.19	7.8 µM
CCC(C)n1c[n+](CC(=O)c2ccc([N+](=O)[O-])cc2)c2c1C(=O)c1ccccc1C2=O (stereo unspecified)	3.23	27.1 µM	1800 nM	15.1	8.9 µM	3.04	8.4 µM
Cc1ccc(C(=O)C[n+]2cn(CC(C)C)c3c2C(=O)c2ccccc2C3=O)cc1	2.67	4.8 µM	350 nM	13.7	0.56 µM	8.57	1.8 µM
Cn1c[n+](CC(=O)c2ccccc2[N+](=O)[O-])c2c1C(=O)c1ccccc1C2=O	4.8	41.8 µM	500 nM	83.6	18 µM	2.32	8.7 µM
